This is an account of results in PMC6407917, “Identification of GSK3186899/DDD853651 as a Preclinical Development Candidate for the Treatment of Visceral Leishmaniasis” (Journal of Medicinal Chemistry, 2018).

Some targets named below: MAP4K1 (Homo sapiens, UniProt Q92918); DDR1 (Homo sapiens, UniProt Q08345); MAP2K3 (Homo sapiens, UniProt P46734); EPHA4 (Homo sapiens, UniProt P54764); FN3K (Homo sapiens, UniProt Q9H479); MAP3K6 (Homo sapiens, UniProt O95382); PRKAG2 (Homo sapiens, UniProt Q9UGJ0); MAP3K5 (Homo sapiens, UniProt Q99683); GAK (Homo sapiens, UniProt O14976); STK38 (Homo sapiens, UniProt Q15208); HIPK2 (Homo sapiens, UniProt Q9H2X6); MAPK14 (Homo sapiens, UniProt Q16539); FES (Homo sapiens, UniProt P07332); MYLK (Homo sapiens, UniProt Q15746); ILK (Homo sapiens, UniProt Q13418); CHEK2 (Homo sapiens, UniProt O96017); PTK2B (Homo sapiens, UniProt Q14289); CDC37 (Homo sapiens, UniProt Q16543); BTK (Homo sapiens, UniProt Q06187); CSNK2A1 (Homo sapiens, UniProt P68400); AXL (Homo sapiens, UniProt P30530).

Assay in all cases: biochemical
What all share (design): species or system HEK293/K-562/placenta mixed human extract; Kinobeads chemoproteomic competition binding, quantified by TMT LC-MS/MS, dose response up to 20 uM

Structures are written as SMILES. Some results are limits rather than exact numbers.

PTK2B, sequence (Q14289 whole entry): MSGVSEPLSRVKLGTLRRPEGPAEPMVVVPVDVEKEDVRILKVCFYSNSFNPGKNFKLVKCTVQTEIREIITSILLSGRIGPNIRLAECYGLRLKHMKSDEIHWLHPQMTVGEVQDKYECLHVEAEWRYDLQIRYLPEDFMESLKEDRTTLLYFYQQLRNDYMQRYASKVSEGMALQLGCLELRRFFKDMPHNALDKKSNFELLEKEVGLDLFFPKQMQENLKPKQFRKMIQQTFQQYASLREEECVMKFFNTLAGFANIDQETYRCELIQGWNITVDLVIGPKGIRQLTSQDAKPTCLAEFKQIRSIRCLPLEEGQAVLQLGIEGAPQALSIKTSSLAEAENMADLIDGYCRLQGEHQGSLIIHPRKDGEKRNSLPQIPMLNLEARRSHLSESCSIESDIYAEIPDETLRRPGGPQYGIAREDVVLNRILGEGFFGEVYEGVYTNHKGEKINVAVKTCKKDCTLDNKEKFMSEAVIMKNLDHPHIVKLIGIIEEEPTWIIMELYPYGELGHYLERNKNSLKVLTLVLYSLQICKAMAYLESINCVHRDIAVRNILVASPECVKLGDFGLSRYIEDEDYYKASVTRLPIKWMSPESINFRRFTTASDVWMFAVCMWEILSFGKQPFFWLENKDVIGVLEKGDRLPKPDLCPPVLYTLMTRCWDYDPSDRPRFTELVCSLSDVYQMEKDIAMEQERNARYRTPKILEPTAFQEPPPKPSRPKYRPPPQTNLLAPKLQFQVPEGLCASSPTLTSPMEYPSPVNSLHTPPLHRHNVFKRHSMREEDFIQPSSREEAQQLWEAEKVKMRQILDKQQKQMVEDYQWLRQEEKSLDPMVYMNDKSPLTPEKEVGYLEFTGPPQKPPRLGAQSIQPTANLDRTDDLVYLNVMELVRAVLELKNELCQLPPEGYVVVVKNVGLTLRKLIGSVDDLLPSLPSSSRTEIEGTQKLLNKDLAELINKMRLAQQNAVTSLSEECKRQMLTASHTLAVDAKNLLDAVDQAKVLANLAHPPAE
FES, sequence (P07332 whole entry): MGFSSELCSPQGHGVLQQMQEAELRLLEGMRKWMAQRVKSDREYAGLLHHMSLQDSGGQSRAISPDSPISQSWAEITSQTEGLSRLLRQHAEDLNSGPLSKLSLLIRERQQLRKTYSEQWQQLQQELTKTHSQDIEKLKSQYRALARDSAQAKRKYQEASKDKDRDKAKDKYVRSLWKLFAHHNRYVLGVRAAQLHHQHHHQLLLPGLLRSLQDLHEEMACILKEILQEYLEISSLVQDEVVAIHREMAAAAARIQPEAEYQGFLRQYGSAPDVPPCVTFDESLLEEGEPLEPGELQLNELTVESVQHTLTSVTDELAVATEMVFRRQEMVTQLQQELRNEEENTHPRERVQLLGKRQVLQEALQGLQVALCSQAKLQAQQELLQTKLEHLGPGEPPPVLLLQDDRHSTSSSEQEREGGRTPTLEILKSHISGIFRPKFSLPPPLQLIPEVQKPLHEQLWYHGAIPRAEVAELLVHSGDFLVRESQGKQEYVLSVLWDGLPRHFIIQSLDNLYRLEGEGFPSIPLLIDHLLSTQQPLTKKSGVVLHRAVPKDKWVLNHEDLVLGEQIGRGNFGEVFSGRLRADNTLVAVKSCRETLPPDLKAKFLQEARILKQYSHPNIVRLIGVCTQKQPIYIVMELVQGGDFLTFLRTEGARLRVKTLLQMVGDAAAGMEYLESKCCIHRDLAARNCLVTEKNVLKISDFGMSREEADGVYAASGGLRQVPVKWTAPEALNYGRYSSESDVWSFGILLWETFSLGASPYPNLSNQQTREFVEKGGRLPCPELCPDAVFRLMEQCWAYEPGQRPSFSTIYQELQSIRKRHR
CDC37, sequence (Q16543 whole entry): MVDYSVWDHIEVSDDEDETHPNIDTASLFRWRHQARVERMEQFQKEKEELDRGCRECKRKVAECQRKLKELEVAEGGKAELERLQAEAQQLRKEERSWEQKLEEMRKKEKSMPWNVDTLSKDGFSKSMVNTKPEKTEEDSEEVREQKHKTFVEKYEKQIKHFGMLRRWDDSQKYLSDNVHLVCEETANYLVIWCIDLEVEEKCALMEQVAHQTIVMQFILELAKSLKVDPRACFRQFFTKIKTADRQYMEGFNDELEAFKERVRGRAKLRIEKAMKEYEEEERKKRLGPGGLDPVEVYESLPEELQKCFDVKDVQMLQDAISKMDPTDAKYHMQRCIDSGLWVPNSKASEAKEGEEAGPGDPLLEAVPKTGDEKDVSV
CHEK2, sequence (O96017 whole entry): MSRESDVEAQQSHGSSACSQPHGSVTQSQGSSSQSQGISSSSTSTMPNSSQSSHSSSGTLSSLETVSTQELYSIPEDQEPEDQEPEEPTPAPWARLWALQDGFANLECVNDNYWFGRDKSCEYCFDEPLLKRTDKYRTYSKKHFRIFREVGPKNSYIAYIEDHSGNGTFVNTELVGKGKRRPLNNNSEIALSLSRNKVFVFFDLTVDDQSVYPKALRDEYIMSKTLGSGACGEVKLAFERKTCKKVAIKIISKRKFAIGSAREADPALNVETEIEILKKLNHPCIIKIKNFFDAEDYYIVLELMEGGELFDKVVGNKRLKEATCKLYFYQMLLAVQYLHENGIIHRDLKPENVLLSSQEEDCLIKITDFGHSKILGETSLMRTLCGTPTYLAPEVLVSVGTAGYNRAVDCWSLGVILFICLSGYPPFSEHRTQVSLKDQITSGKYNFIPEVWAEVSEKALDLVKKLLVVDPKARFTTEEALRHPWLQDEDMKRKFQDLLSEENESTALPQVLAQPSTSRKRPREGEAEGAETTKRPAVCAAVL
CSNK2A1, sequence (P68400 whole entry): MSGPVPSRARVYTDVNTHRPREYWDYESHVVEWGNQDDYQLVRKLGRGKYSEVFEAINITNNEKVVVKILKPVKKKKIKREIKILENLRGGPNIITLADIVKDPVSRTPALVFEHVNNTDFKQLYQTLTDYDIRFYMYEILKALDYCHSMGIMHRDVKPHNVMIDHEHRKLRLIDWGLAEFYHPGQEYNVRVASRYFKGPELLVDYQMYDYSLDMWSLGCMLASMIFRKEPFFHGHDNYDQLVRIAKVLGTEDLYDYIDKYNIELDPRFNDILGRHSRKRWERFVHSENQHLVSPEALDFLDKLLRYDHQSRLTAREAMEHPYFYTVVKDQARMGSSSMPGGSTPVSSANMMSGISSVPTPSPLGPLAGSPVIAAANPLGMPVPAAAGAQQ
AXL, sequence (P30530 whole entry): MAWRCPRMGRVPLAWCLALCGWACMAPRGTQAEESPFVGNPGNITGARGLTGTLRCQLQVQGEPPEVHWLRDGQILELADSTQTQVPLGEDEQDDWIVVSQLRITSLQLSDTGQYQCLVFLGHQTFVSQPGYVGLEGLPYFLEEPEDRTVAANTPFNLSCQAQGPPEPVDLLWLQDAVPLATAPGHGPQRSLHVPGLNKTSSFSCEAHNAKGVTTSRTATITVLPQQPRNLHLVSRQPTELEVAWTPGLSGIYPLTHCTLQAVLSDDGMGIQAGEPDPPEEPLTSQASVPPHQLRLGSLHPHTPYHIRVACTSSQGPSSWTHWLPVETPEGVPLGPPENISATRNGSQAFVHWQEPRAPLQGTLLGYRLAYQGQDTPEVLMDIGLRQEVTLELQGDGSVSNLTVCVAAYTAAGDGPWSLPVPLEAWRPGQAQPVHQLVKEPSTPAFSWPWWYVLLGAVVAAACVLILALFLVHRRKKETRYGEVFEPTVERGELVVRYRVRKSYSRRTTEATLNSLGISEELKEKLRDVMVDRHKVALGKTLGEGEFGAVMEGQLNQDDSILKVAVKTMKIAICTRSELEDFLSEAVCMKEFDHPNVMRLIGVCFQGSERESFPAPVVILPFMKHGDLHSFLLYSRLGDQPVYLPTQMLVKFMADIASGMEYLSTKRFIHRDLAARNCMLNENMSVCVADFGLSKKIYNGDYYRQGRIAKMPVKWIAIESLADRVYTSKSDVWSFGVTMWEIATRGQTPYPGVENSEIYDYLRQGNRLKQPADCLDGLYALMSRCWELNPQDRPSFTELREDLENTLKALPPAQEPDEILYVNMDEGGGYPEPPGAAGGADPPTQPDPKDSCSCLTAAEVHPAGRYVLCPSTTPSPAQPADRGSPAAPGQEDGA
ILK, sequence (Q13418 whole entry): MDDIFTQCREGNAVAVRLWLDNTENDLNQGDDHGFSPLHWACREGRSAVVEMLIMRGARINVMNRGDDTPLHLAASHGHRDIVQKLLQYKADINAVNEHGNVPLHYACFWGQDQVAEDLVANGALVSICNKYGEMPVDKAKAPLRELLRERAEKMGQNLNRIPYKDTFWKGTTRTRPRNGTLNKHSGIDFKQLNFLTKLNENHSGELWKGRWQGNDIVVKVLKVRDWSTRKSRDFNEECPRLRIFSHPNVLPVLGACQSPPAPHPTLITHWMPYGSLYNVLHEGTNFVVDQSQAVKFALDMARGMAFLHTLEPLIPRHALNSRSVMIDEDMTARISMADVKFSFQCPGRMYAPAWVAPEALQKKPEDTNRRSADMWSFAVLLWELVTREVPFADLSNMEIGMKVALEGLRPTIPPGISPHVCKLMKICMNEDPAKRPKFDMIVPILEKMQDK
MAP2K3, sequence (P46734 whole entry): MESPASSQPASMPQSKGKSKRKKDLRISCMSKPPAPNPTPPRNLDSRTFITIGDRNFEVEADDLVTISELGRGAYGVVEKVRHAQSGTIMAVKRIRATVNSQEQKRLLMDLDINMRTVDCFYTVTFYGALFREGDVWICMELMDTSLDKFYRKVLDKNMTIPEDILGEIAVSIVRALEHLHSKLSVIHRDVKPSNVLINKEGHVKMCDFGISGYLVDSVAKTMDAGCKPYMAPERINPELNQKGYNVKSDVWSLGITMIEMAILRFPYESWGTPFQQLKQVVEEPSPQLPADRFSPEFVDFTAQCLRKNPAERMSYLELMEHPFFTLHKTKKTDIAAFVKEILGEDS

Regarding `COc1ccccc1-c1n[nH]c2nc(N[C@H]3CC[C@H](NS(=O)(=O)CCC(F)(F)F)CC3)nc(OC)c12` [compound 31, 3,3,3-Trifluoro-N-(trans-4-((4-methoxy-3-(2-methoxyphenyl)-1H-pyrazolo[3,4-d]pyrimidin-6-yl)amino)cyclohexyl)propane-1-sulfonamide], the IC50 at MAP4K1, on DDR1, at MAP2K3, on EPHA4, on FN3K and at MAP3K6 was no less than 20 µM each time. Moreover, the IC50 on PRKAG2 is no less than 20 µM; at MAP3K5, no less than 20 µM; on GAK, 9.9 µM; at STK38, no less than 20 µM; on HIPK2, no less than 20 µM; at MAPK14, no less than 20 µM. Further, the IC50 on FES, on MYLK, at ILK, on CHEK2, on PTK2B and at CDC37 was no less than 20 µM throughout. Besides, the IC50 on BTK, on CSNK2A1 and on AXL was no less than 20 µM in each case.

In general, IC50 refers to the concentration that inhibits the measured activity by half. A high value points to weaker potency.
